Assay results taken from ChEMBL document CHEMBL5608189, “Design and synthesis of unique indole-benzosulfonamide oleanolic acid derivatives as potent antibacterial agents against MRSA” (Eur J Med Chem, 2024).
Converted amounts (≈) assume the structure as drawn.

Assays:
Assay type in all cases: functional
Staphylococcus aureus [1] = experiment: Antibacterial activity against methicillin-resistant Staphylococcus aureus measured after 24 hrs by susceptibility assay
Staphylococcus aureus [2] = experiment: Antibacterial activity against Staphylococcus aureus ATCC 6538 measured after 24 hrs by susceptibility assay
[3] = tested on: Staphylococcus epidermidis; experiment: Antibacterial activity against Staphylococcus epidermidis ATCC 12228 measured after 24 hrs by susceptibility assay
Staphylococcus aureus [4] = experiment: Antibacterial activity against Staphylococcus aureus ATCC 29213 measured after 24 hrs by susceptibility assay

| SMILES | MIC (Staphylococcus aureus [1]) [µM] | MIC (Staphylococcus aureus [2]) [µM] | MIC [3] [µM] | MIC (Staphylococcus aureus [4]) [µM] |
| --- | --- | --- | --- | --- |
| CC1(C)CC[C@]2(C(=O)NS(=O)(=O)c3ccc(Cl)cc3)CC[C@]3(C)C(=CC[C@@H]4[C@@]5(C)CCC(=O)C(C)(C)[C@@H]5CC[C@]43C)[C@@H]2C1 | 32 (≈ 20.1 µg/mL) | 4 (≈ 2.51 µg/mL) | 4 (≈ 2.51 µg/mL) | 8 (≈ 5.03 µg/mL) |
| CC1(C)CC[C@]2(C(=O)O)CC[C@]3(C)C(=CC[C@@H]4[C@@]5(C)CC[C@H](O)C(C)(C)[C@@H]5CC[C@]43C)[C@@H]2C1 [OLEANOLIC_ACID] | 32 (≈ 14.6 µg/mL) | 32 (≈ 14.6 µg/mL) | 32 (≈ 14.6 µg/mL) | 32 (≈ 14.6 µg/mL) |
| CC(=O)c1ccc2c3c([nH]c2c1)C(C)(C)[C@@H]1CC[C@]2(C)[C@H](CC=C4[C@@H]5CC(C)(C)CC[C@]5(C(=O)NS(=O)(=O)c5ccccc5)CC[C@]42C)[C@@]1(C)C3 | 2 (≈ 1.42 µg/mL) | 1 (≈ 0.709 µg/mL) | 2 (≈ 1.42 µg/mL) | 2 (≈ 1.42 µg/mL) |
| Cc1ccc(S(=O)(=O)NC(=O)[C@]23CCC(C)(C)C[C@H]2C2=CC[C@@H]4[C@@]5(C)Cc6c([nH]c7cccc(C(=O)O)c67)C(C)(C)[C@@H]5CC[C@@]4(C)[C@]2(C)CC3)cc1 | 4 (≈ 2.9 µg/mL) | 1 (≈ 0.725 µg/mL) | 4 (≈ 2.9 µg/mL) | 4 (≈ 2.9 µg/mL) |
| CC1(C)CC[C@]2(C(=O)NS(=O)(=O)c3ccc(C(=O)O)cc3)CC[C@]3(C)C(=CC[C@@H]4[C@@]5(C)Cc6c([nH]c7c(C(=O)O)cccc67)C(C)(C)[C@@H]5CC[C@]43C)[C@@H]2C1 | 1 (≈ 0.755 µg/mL) | 0.5 (≈ 0.377 µg/mL) | 1 (≈ 0.755 µg/mL) | 2 (≈ 1.51 µg/mL) |
| CN1CCN(C(=O)[C@]23CCC(C)(C)C[C@H]2C2=CC[C@@H]4[C@@]5(C)CCC(=O)C(C)(C)[C@@H]5CC[C@@]4(C)[C@]2(C)CC3)CC1 | > 256 | 64 (≈ 34.4 µg/mL) | 64 (≈ 34.4 µg/mL) | 32 (≈ 17.2 µg/mL) |
| CC1(C)CC[C@]2(C(=O)Nc3ccc(-c4ccccc4)cc3)CC[C@]3(C)C(=CC[C@@H]4[C@@]5(C)Cc6c([nH]c7ccc(C(=O)O)cc67)C(C)(C)[C@@H]5CC[C@]43C)[C@@H]2C1 | > 256 | > 256 | > 256 | > 256 |
| CC1(C)CC[C@]2(C(=O)NS(=O)(=O)c3ccccc3)CC[C@]3(C)C(=CC[C@@H]4[C@@]5(C)CCC(=O)C(C)(C)[C@@H]5CC[C@]43C)[C@@H]2C1 | > 256 | 128 (≈ 76 µg/mL) | > 256 | > 256 |
| COc1cccc(OC)c1C(=O)N[C@@H]1C(=O)N2[C@@H]1SC(C)(C)[C@@H]2C(=O)O [METHICILLIN] | 256 (≈ 97.4 µg/mL) | 4 (≈ 1.52 µg/mL) | 2 (≈ 0.761 µg/mL) | 2 (≈ 0.761 µg/mL) |
| CC1(C)CC[C@]2(C(=O)Nc3ccc(-c4ccccc4)cc3)CC[C@]3(C)C(=CC[C@@H]4[C@@]5(C)CCC(=O)C(C)(C)[C@@H]5CC[C@]43C)[C@@H]2C1 | > 256 | > 256 | > 256 | > 256 |
| CC(=O)c1cccc2[nH]c3c(c12)C[C@]1(C)[C@H]2CC=C4[C@@H]5CC(C)(C)CC[C@]5(C(=O)NS(=O)(=O)c5ccccc5)CC[C@@]4(C)[C@]2(C)CC[C@H]1C3(C)C | 4 (≈ 2.84 µg/mL) | 4 (≈ 2.84 µg/mL) | 2 (≈ 1.42 µg/mL) | 4 (≈ 2.84 µg/mL) |
| CC1(C)CC[C@]2(C(=O)NS(=O)(=O)c3ccc(C(=O)O)cc3)CC[C@]3(C)C(=CC[C@@H]4[C@@]5(C)CCC(=O)C(C)(C)[C@@H]5CC[C@]43C)[C@@H]2C1 | 256 (≈ 163 µg/mL) | 64 (≈ 40.8 µg/mL) | 256 (≈ 163 µg/mL) | 128 (≈ 81.6 µg/mL) |
| CC1(C)CC[C@]2(C(=O)NS(=O)(=O)c3ccccc3)CC[C@]3(C)C(=CC[C@@H]4[C@@]5(C)Cc6c([nH]c7ccc(C(=O)O)cc67)C(C)(C)[C@@H]5CC[C@]43C)[C@@H]2C1 | 1 (≈ 0.711 µg/mL) | 1 (≈ 0.711 µg/mL) | 2 (≈ 1.42 µg/mL) | 2 (≈ 1.42 µg/mL) |
| CN1CCN(C(=O)[C@]23CCC(C)(C)C[C@H]2C2=CC[C@@H]4[C@@]5(C)Cc6c([nH]c7cccc(C(=O)O)c67)C(C)(C)[C@@H]5CC[C@@]4(C)[C@]2(C)CC3)CC1 | > 256 | > 256 | > 256 | > 256 |
